# Data published in patent US8680052B1, “Methods of treating, reducing the incidence of, and/or preventing ischemic events” (The Medicines Company, priority 2013, dated 2014).
# Like-named read-outs stand apart in the source and are kept apart here.
# What was measured:
# [1] = system: patients with acute coronary syndromes undergoing PCI; experiment: Example 2: bleeding (GUSTO, TIMI, ACUITY) and adverse events up to 48 hours; format: in vivo, human
# Excerpt: Multiple definitions of bleeding were used for full disclosure of bleeding risks associated with cangrelor: […] N Engl J Med 329:673-82 (1993); mild, moderate, or severe/life-threatening based on transfusion use and presence/absence of hemodynamic compromise); […] Investigators reported adverse and serious adverse events according to International Conference on Harmonization guidance (International Conference on Harmonization (ICH) Guidance Documents. U.S. Food and Drug Administration Web site. (Accessed on Oct. 8, 2009, at the FDA website beginning with “www.” and ending with “fda.gov/RegulatoryInformation/Guidances/ucm122049.htm”)).
# [2] = target: T1, P2Y12 receptor (Homo sapiens, UniProt Q9H244); experiment: Example 2 substudy: platelet function by VerifyNow P2Y12 Assay; format: in vivo
# T1 construct: from tissue; host or cells: platelets in whole blood of patients
# Experimental: Platelet function parameters were measured using the VerifyNow® P2Y12 Assay (Accumetrics, San Diego, Calif.). Samples were taken before study drug administration, at approximately 2 hours (during cangrelor/placebo infusion), and 10 hours or next day following randomization.
# [3] = system: patients with atherosclerosis undergoing PCI; format: in vivo; details: for Agitation (Psychiatric disorders) / Chest Pain (General disorders and administration site conditions) / Diarrhea (Gastrointestinal disorders) / Dyspnea (Respiratory, thoracic, and mediastinal disorders) / Procedural Pain (Injury, poisoning, and procedural complications): treatment emergent adverse event
# Experimental: The primary safety end point was severe bleeding not related to coronary-artery bypass grafting, according to the Global Use of Strategies to Open Occluded Coronary Arteries (GUSTO) criteria, at 48 hours. Several other bleeding definitions were also applied.
# [4] = 48 hours, Non-CABG Related Bleeding, Safety, Cangrelor vs Clopidogrel
# [5] = 48 hours, Non-CABG Related Bleeding, Safety, n/N
# [6] = 48 hours, Non-CABG Related Bleeding, Safety, rate in parentheses
# [7] = 48 hours, Non-CABG Related, Safety, Cangrelor vs Clopidogrel
# [8] = 48 hours, Non-CABG Related, Safety, n/N
# [9] = 48 hours, Non-CABG Related, Safety, rate in parentheses
# [10] = 48 hours, non-CABG-related, safety population, Cangrelor vs Clopidogrel
# [11] = 48 hours, safety population, n/N
# T1 sequence (Q9H244 whole entry): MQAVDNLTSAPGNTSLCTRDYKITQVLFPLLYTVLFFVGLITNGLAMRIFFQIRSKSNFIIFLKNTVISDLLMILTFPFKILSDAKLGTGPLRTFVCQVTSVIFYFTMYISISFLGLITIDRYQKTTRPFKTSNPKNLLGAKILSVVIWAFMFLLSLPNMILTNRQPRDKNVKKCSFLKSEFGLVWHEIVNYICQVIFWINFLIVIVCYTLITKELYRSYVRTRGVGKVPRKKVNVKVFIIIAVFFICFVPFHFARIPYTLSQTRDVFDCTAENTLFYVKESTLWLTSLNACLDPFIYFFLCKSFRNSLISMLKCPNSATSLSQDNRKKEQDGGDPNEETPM
compound,measurement,setting,value
"CSCCNc1nc(SCCC(F)(F)F)nc2c1ncn2[C@@H]1O[C@H](COP(=O)(O)OP(=O)(O)C(Cl)(Cl)P(=O)(O)O)[C@@H](O)[C@H]1O [Cangrelor, cangrelor]",OR (95% CI): Hematoma ≧5 cm at puncture site,"[1]; 48-hour, safety population, cangrelor vs clopidogrel","1.12 (0.82, 1.53)"
same,ACUITY criteria Major bleeding,"[1]; human, in vivo, 48 h",158 (3.6) no. (%)
same,ACUITY criteria Minor bleeding,"[1]; human, in vivo, 48 h",768 (17.6) no. (%)
same,Access site bleeding requiring radiologic or surgical intervention,"[1]; human, in vivo, 48 h",6 (0.1) no. (%)
same,Any blood transfusion,"[1]; human, in vivo, 48 h",46 (1.1) no. (%)
same,Any platelet transfusion,"[1]; human, in vivo, 48 h",6 (0.1) no. (%)
same,Drop in hemoglobin and/or hematocrit,"[1]; human, in vivo, 48 h",91 (2.1) no. (%)
same,Dyspnea,"[1]; human, in vivo, 48 h",1.0%
same,Ecchymosis,"[1]; human, in vivo, 48 h",284 (6.5) no. (%)
same,Epistaxis,"[1]; human, in vivo, 48 h",9 (0.2) no. (%)
same,GUSTO criteria Mild bleeding,"[1]; human, in vivo, 48 h",858 (19.6) no. (%)
same,GUSTO criteria Moderate bleeding,"[1]; human, in vivo, 48 h",41 (0.9) no. (%)
same,GUSTO criteria Severe/life-threatening bleeding,"[1]; human, in vivo, 48 h",10 (0.2) no. (%)
same,Hematoma <5 cm at puncture site,"[1]; human, in vivo, 48 h",251 (5.7) no. (%)
same,Hematoma ≧5 cm at puncture site,"[1]; human, in vivo, 48 h",85 (1.9) no. (%)
same,Hemodynamic compromise,"[1]; human, in vivo, 48 h",9 (0.2) no. (%)
same,Intracranial hemorrhage,"[1]; human, in vivo, 48 h",1 (0.0) no. (%)
same,Intraocular,"[1]; human, in vivo, 48 h",2 (0.0) no. (%)
same,OR (95% CI): ACUITY criteria Major bleeding,"[1]; human, in vivo, 48 h","1.26 (0.99, 1.60)"
same,OR (95% CI): ACUITY criteria Minor bleeding,"[1]; human, in vivo, 48 h","1.19 (1.06, 1.33)"
same,OR (95% CI): Access site bleeding requiring radiologic or surgical intervention,"[1]; human, in vivo, 48 h","0.60 (0.22, 1.65)"
same,OR (95% CI): Any blood transfusion,"[1]; human, in vivo, 48 h","1.09 (0.72, 1.67)"
same,OR (95% CI): Any platelet transfusion,"[1]; human, in vivo, 48 h","1.20 (0.37, 3.93)"
same,OR (95% CI): Drop in hemoglobin and/or hematocrit,"[1]; human, in vivo, 48 h","1.45 (1.05, 2.01)"
same,OR (95% CI): Ecchymosis,"[1]; human, in vivo, 48 h","1.23 (1.03, 1.47)"
same,OR (95% CI): Epistaxis,"[1]; human, in vivo, 48 h","0.41 (0.19, 0.89)"
same,OR (95% CI): GUSTO criteria Mild bleeding,"[1]; human, in vivo, 48 h","1.20 (1.07, 1.34)"
same,OR (95% CI): GUSTO criteria Moderate bleeding,"[1]; human, in vivo, 48 h","1.21 (0.76, 1.90)"
same,OR (95% CI): GUSTO criteria Severe/life-threatening bleeding,"[1]; human, in vivo, 48 h","0.91 (0.39, 2.14)"
same,OR (95% CI): Hematoma <5 cm at puncture site,"[1]; human, in vivo, 48 h","1.14 (0.94, 1.37)"
same,OR (95% CI): Hemodynamic compromise,"[1]; human, in vivo, 48 h","0.82 (0.34, 1.97)"
same,OR (95% CI): Oozing at puncture site,"[1]; human, in vivo, 48 h","1.28 (1.10, 1.49)"
same,OR (95% CI): Reoperation for bleeding,"[1]; human, in vivo, 48 h","1.00 (0.06, 15.96)"
same,OR (95% CI): Retroperitoneal,"[1]; human, in vivo, 48 h","1.50 (0.67, 3.34)"
same,OR (95% CI): TIMI criteria Major bleeding,"[1]; human, in vivo, 48 h","1.36 (0.68, 2.71)"
same,OR (95% CI): TIMI criteria Minor bleeding,"[1]; human, in vivo, 48 h","1.39 (0.84, 2.30)"
same,OR (95% CI): Thrombocytopenia,"[1]; human, in vivo, 48 h","0.86 (0.29, 2.55)"
same,Oozing at puncture site,"[1]; human, in vivo, 48 h",400 (9.1) no. (%)
same,Reoperation for bleeding,"[1]; human, in vivo, 48 h",1 (0.0) no. (%)
same,Reported adverse events,"[1]; human, in vivo, 48 h",26.4%
same,Retroperitoneal,"[1]; human, in vivo, 48 h",15 (0.3) no. (%)
same,Serious adverse events,"[1]; human, in vivo, 48 h",2.7%
same,TIMI criteria Major bleeding,"[1]; human, in vivo, 48 h",19 (0.4) no. (%)
same,TIMI criteria Minor bleeding,"[1]; human, in vivo, 48 h",36 (0.8) no. (%)
same,Thrombocytopenia,"[1]; human, in vivo, 48 h",6 (0.1) no. (%)
same,discontinuation of study drug due to an adverse event,"[1]; human, in vivo, 48 h",0.5%
same,median PRU (VerifyNow P2Y12 assay),[2]; 12-24 hours after discontinuation of the cangrelor infusion,228 PRU
same,median PRU (VerifyNow P2Y12 assay),[2]; during the study drug infusion (approx. 2 hours),93.5 PRU
same,rate of GUSTO-defined severe bleeding (primary safety end point),[3]; 48 hours,0.16%
same,BARC criteria Type 3 OR,[3]; [4],1.69
same,BARC criteria Type 3a OR,[3]; [4],2.75
same,BARC criteria Type 3b OR,[3]; [4],1.12
same,BARC criteria Type 3c OR,[3]; [4],2.00
same,BARC criteria Type 3,[3]; [5],22/5529
same,BARC criteria Type 3a,[3]; [5],11/5529
same,BARC criteria Type 3b,[3]; [5],9/5529
same,BARC criteria Type 3c,[3]; [5],2/5529
same,BARC criteria Type 3,[3]; [6],(0.4)
same,BARC criteria Type 3a,[3]; [6],(0.2)
same,BARC criteria Type 3b,[3]; [6],(0.2)
same,BARC criteria Type 3c,[3]; [6],(0.0)
same,ACUITY criteria Major bleeding OR,[3]; [7],1.72
same,ACUITY criteria Major without ≧ 5 cm hematoma OR,[3]; [7],1.62
same,ACUITY criteria Minor bleeding OR,[3]; [7],1.42
same,ACUITY criteria Major bleeding,[3]; [8],235/5529
same,ACUITY criteria Major without ≧ 5 cm hematoma,[3]; [8],42/5529
same,ACUITY criteria Minor bleeding,[3]; [8],653/5529
same,ACUITY criteria Major bleeding,[3]; [9],(4.3)
same,ACUITY criteria Major without ≧ 5 cm hematoma,[3]; [9],(0.8)
same,ACUITY criteria Minor bleeding,[3]; [9],(11.8)
same,"odds ratio, GUSTO-defined severe bleeding","[3]; 48 hours, cangrelor vs clopidogrel",1.50
same,"GUSTO-defined moderate bleeding, Odds Ratio (95% CI)",[3]; [10],1.69 (0.85-3.37)
same,"GUSTO-defined severe or life-threatening bleeding, Odds Ratio (95% CI)",[3]; [10],1.50 (0.53-4.22)
same,"GUSTO-defined severe or moderate bleeding, Odds Ratio (95% CI)",[3]; [10],1.63 (0.92-2.90)
same,"TIMI-defined major bleeding, Odds Ratio (95% CI)",[3]; [10],1.00 (0.29)-3.45)
same,"TIMI-defined major or minor bleeding, Odds Ratio (95% CI)",[3]; [10],1.75 (0.73-4.18)
same,"TIMI-defined minor bleeding, Odds Ratio (95% CI)",[3]; [10],3.00 (0.81-11.10)
same,"Any blood transfusion, Odds Ratio (95% CI)","[3]; 48 hours, safety population, Cangrelor vs Clopidogrel",1.56 (0.83-2.93)
same,adverse events that led to discontinuation of the study drug,[3]; in vivo,0.5%
same,rate of adverse events related to treatment,[3]; in vivo,20.2%
same,transient dyspnea,[3]; in vivo,1.2%
same,Agitation (Psychiatric disorders),"[3]; 48 hours, safety population",(0.2) %
same,Chest Pain (General disorders and administration site conditions),"[3]; 48 hours, safety population",(1.0) %
same,Diarrhea (Gastrointestinal disorders),"[3]; 48 hours, safety population",(0.3) %
same,"Dyspnea (Respiratory, thoracic, and mediastinal disorders)","[3]; 48 hours, safety population",(1.2) %
same,"Procedural Pain (Injury, poisoning, and procedural complications)","[3]; 48 hours, safety population",(0.1) %
same,Agitation (Psychiatric disorders),[3]; [11],11/5529
same,Chest Pain (General disorders and administration site conditions),[3]; [11],55/5529
same,Diarrhea (Gastrointestinal disorders),[3]; [11],15/5529
same,"Dyspnea (Respiratory, thoracic, and mediastinal disorders)",[3]; [11],64/5529
same,"Procedural Pain (Injury, poisoning, and procedural complications)",[3]; [11],4/5529
